Measurements: patent US6417167B1, “Lyophilized compositions containing shingoglycolipid and process for preparing them” (Kirin Beer Kabushiki Kaisha, priority 1997, dated 2002)
In brackets after ≈: the same amount, converted by molar mass. Read-outs that look alike come from different tables or passages of the source.

Assays:
Type in all cases: physicochemical
[1] = Additives for improving re-solubility during storage, sucrose as excipient; conditions: lyophilized, Polysorbate 20 0.5%, Sucrose 9.6%
Experimental: First, Polysorbate 20 was dissolved in distilled water in a concentration of 0.5%, and sucrose and a variety of additives such concentrations as listed in Table 9. Next, 20 mg of the active component (KRN7000) was weighed and stirred in 100 ml of the solvents in a heated bath to 80° C. for 20 minutes in order to form a solution. After cooling with running water, the mixture was filtered through a 0.22 μm filter, and transparent colorless glass vials having a volume of 5 ml were charged with a 1 ml portion of each of a variety of solutions thus obtained and subjected to lyophilization. Lyophilization was carried out under the condition of preliminary freezing at −40° C. for 2 hours and drying at −20° C. for 24 hours, 10° C. for 12 hours, and finally at 25° C. for 5 hours to give the lyophilized product. The degree of vacuum was set at 0.1 Torr or less during drying step.
After the lyophilization step, the lyophilized composition thus obtained was stored at 25° C. or 50° C. , or at both of these temperatures. After storage at 25° C. for 1 month or at 50° C. for 3 days, the lyophilized composition was reconstituted in 1 ml of distilled water for injection, left standing for 30 minutes, and solubility was judged when the foams generated on reconstitution disappeared. The samples judged in solution were further stored, and judged again of their solubility after storage at 25° C. for 4 months or at 50° C. for 2 weeks.
(§1) The solubility was judged by cleaning the outside of the vial and placing it beneath the white light source in a darkroom for observation with naked eye at the position of a luminous intensity of about 5,000 lux. When the sample was clear with no precipitates, it was judged that the active component was dissolved.

[2] = Selection of a solvent for the active component: solubility judged by naked eye; conditions: thermodynamic from solid, read-out: Judgment of solubility (by naked eye)
Experimental: First, 1 mg of the active component (KRN7000) was weighed and stirred in 100 ml of a variety of solvents (Table 3) in a heated bath to 80° C. for 20 minutes in order to form a solution having a concentration of 10 μg/ml. With respect to the solvents which were judged to have successfully dissolved 10 μg/ml of the active component, dissolution was further tried in the same manner as above in order to form a solution having a concentration of 100 μg/ml. With respect to the solvents which were judged to have successfully dissolved 100 μg/ml of the active component, dissolution was further tried in the same manner as above in order to form a solution having a concentration of 200 μg/ml. After cooling with running water, the solubility of the component was judged.
The solubility of the component was judged by the test described below. First, transparent colorless glass vials having a volume of 5 ml were charged with about 1.5 ml portion of each sample and sealed up. The vial was cleaned outside and placed beneath the white light source in a darkroom for observation with naked eye at the position of a luminous intensity of about 5,000 lux. When the sample was clear with no precipitates, it was judged that the active component was dissolved.

[3] = Optimal amount of Polysorbate 20: solubility of solutions after storage, by naked eye; set-up: key: +: not dissolved (or deposited); −: dissolved; conditions: KRN7000 200 μg/ml, stored as solution 25° C.
Experimental: Next, 20 mg of the active component (KRN7000) was weighed and stirred in 100 ml of the Polysorbate solutions having a variety of concentrations in a heated bath at 80° C. for 20 minutes in order to form a solution. After cooling with running water, the mixture was filtered through a 0.22 μm filter, and transparent colorless glass vials having a volume of 5 ml were charged with a 2 ml portion of each of a variety of solutions and sealed up.
These samples were stored at 25° C. for 2 weeks, and judged of their solubility. The samples judged in solution were further stored, and judged again of their solubility after 1 month.
as §1, with “in the” for “in a”
In the table, the variations with the passage of time after storage represent the solubility when stored in the form of solution.

Re-solubility after storage (by naked eye) ([1]; Arginine, 0.1%, 50° C., 3 days): + (not dissolved (or deposited))
Re-solubility after storage (by naked eye) ([1]; Glycerol, 1%, 25° C., 1 month): + (not dissolved (or deposited))
Re-solubility after storage (by naked eye) ([1]; Glycine, 0.1%, 50° C., 3 days): + (not dissolved (or deposited))
Re-solubility after storage (by naked eye) ([1]; Glycine, 1%, 50° C., 3 days): + (not dissolved (or deposited))
Re-solubility after storage (by naked eye) ([1]; Histidine, 2%, 50° C., 2 weeks): − (dissolved)
Re-solubility after storage (by naked eye) ([1]; Histidine, 2%, 50° C., 3 days): − (dissolved)
Re-solubility after storage (by naked eye) ([1]; Pluronic F68, 0.1%, 25° C., 1 month): − (dissolved)
Re-solubility after storage (by naked eye) ([1]; Pluronic F68, 0.1%, 25° C., 4 month): + (not dissolved (or deposited))
Re-solubility after storage (by naked eye) ([1]; Pluronic F68, 1%, 25° C., 1 month): − (dissolved)
Re-solubility after storage (by naked eye) ([1]; Pluronic F68, 1%, 25° C., 4 month): + (not dissolved (or deposited))
Re-solubility after storage (by naked eye) ([1]; Propylene glycol, 1%, 25° C., 1 month): + (not dissolved (or deposited))
Re-solubility after storage (by naked eye) ([1]; Sodium deoxycholate, 0.1%, 25° C., 1 month): − (dissolved)
Re-solubility after storage (by naked eye) ([1]; Sodium deoxycholate, 0.1%, 25° C., 4 month): + (not dissolved (or deposited))
Re-solubility after storage (by naked eye) ([1]; Sodium deoxycholate, 1%, 25° C., 1 month): − (dissolved)
Re-solubility after storage (by naked eye) ([1]; Sodium deoxycholate, 1%, 25° C., 4 month): − (dissolved)
Re-solubility after storage (by naked eye) ([1]; Sodium deoxycholate, 1%, 50° C., 2 weeks): − (dissolved)
Re-solubility after storage (by naked eye) ([1]; Sodium deoxycholate, 1%, 50° C., 3 days): − (dissolved)
Re-solubility after storage (by naked eye) ([1]; no additive, 25° C., 1 month): − (dissolved)
Re-solubility after storage (by naked eye) ([1]; no additive, 25° C., 4 month): + (not dissolved (or deposited))
Re-solubility after storage (by naked eye) ([1]; no additive, 50° C., 3 days): + (not dissolved (or deposited))
solubility at 20 min ([2]; 0.5% Cremophor, 80 °C, aqueous with cosolvent or surfactant or cyclodextrin, solvent 0.5% Cremophor, KRN7000 10 μg/ml): < 10 µg/mL
solubility at 20 min ([2]; 0.5% HCO 50, 80 °C, aqueous with cosolvent or surfactant or cyclodextrin, solvent 0.5% HCO 50, KRN7000 10 μg/ml): < 10 µg/mL
solubility at 20 min ([2]; 0.5% HCO 60, 80 °C, aqueous with cosolvent or surfactant or cyclodextrin, solvent 0.5% HCO 60, KRN7000 10 μg/ml): < 10 µg/mL
solubility at 20 min ([2]; 0.5% Polyoxamer 188, 80 °C, aqueous with cosolvent or surfactant or cyclodextrin, solvent 0.5% Polyoxamer 188, KRN7000 10 μg/ml): < 10 µg/mL
solubility at 20 min ([2]; 0.5% Polysorbate 20, 80 °C, aqueous with cosolvent or surfactant or cyclodextrin, solvent 0.5% Polysorbate 20, KRN7000 10 μg/ml): > 10 µg/mL
solubility at 20 min ([2]; 0.5% Polysorbate 20, 80 °C, aqueous with cosolvent or surfactant or cyclodextrin, solvent 0.5% Polysorbate 20, KRN7000 100 μg/ml): > 100 µg/mL
solubility at 20 min ([2]; 0.5% Polysorbate 20, 80 °C, aqueous with cosolvent or surfactant or cyclodextrin, solvent 0.5% Polysorbate 20, KRN7000 200 μg/ml): > 200 µg/mL
solubility at 20 min ([2]; 0.5% Polysorbate 80, 80 °C, aqueous with cosolvent or surfactant or cyclodextrin, solvent 0.5% Polysorbate 80, KRN7000 10 μg/ml): > 10 µg/mL
solubility at 20 min ([2]; 0.5% Polysorbate 80, 80 °C, aqueous with cosolvent or surfactant or cyclodextrin, solvent 0.5% Polysorbate 80, KRN7000 100 μg/ml): 10 to 100 µg/mL (≈ 11.7 to 117 µM)
solubility at 20 min ([2]; 1N HCl, 80 °C, simulated gastric fluid, solvent 1N HCl, KRN7000 10 μg/ml): < 10 µg/mL
solubility at 20 min ([2]; 1N NaOH, 80 °C, aqueous buffer, solvent 1N NaOH, KRN7000 10 μg/ml): < 10 µg/mL
solubility at 20 min ([2]; Distilled water, 80 °C, water, solvent Distilled water, KRN7000 10 μg/ml): < 10 µg/mL
solubility at 20 min ([2]; Ethanol, 80 °C, organic solvent or mixture, solvent Ethanol, KRN7000 10 μg/ml): > 10 µg/mL
solubility at 20 min ([2]; Ethanol, 80 °C, organic solvent or mixture, solvent Ethanol, KRN7000 100 μg/ml): > 100 µg/mL
solubility at 20 min ([2]; Ethanol, 80 °C, organic solvent or mixture, solvent Ethanol, KRN7000 200 μg/ml): > 200 µg/mL
solubility at 20 min ([2]; Glycerol, 80 °C, organic solvent or mixture, solvent Glycerol, KRN7000 10 μg/ml): > 10 µg/mL
solubility at 20 min ([2]; Glycerol, 80 °C, organic solvent or mixture, solvent Glycerol, KRN7000 100 μg/ml): 10 to 100 µg/mL (≈ 11.7 to 117 µM)
solubility at 20 min ([2]; Macrogol 400, 80 °C, organic solvent or mixture, solvent Macrogol 400, KRN7000 10 μg/ml): > 10 µg/mL
solubility at 20 min ([2]; Macrogol 400, 80 °C, organic solvent or mixture, solvent Macrogol 400, KRN7000 100 μg/ml): 10 to 100 µg/mL (≈ 11.7 to 117 µM)
solubility at 20 min ([2]; Propylene glycol, 80 °C, organic solvent or mixture, solvent Propylene glycol, KRN7000 10 μg/ml): > 10 µg/mL
solubility at 20 min ([2]; Propylene glycol, 80 °C, organic solvent or mixture, solvent Propylene glycol, KRN7000 100 μg/ml): 10 to 100 µg/mL (≈ 11.7 to 117 µM)
Variation with the passage of time after storage (by naked eye) ([3]; Polysorbate 20 0.1%, 2 weeks): +
Variation with the passage of time after storage (by naked eye) ([3]; Polysorbate 20 0.2%, 2 weeks): +
Variation with the passage of time after storage (by naked eye) ([3]; Polysorbate 20 0.3%, 1 month): +
Variation with the passage of time after storage (by naked eye) ([3]; Polysorbate 20 0.3%, 2 weeks): −
Variation with the passage of time after storage (by naked eye) ([3]; Polysorbate 20 0.5%, 1 month): +
Variation with the passage of time after storage (by naked eye) ([3]; Polysorbate 20 0.5%, 2 weeks): −
Variation with the passage of time after storage (by naked eye) ([3]; Polysorbate 20 1.0%, 1 month): +
Variation with the passage of time after storage (by naked eye) ([3]; Polysorbate 20 1.0%, 2 weeks): −
Variation with the passage of time after storage (by naked eye) ([3]; Polysorbate 20 2.0%, 1 month): +
Variation with the passage of time after storage (by naked eye) ([3]; Polysorbate 20 2.0%, 2 weeks): −
Variation with the passage of time after storage (by naked eye) ([3]; Polysorbate 20 4.0%, 1 month): +
Variation with the passage of time after storage (by naked eye) ([3]; Polysorbate 20 4.0%, 2 weeks): −
Variation with the passage of time after storage (by naked eye) ([3]; Polysorbate 20 8.0%, 1 month): +
Variation with the passage of time after storage (by naked eye) ([3]; Polysorbate 20 8.0%, 2 weeks): −
Structure (SMILES): CCCCCCCCCCCCCCCCCCCCCCCCCC(=O)N[C@@H](CO[C@H]1O[C@H](CO)[C@H](O)[C@H](O)[C@H]1O)[C@H](O)[C@H](O)CCCCCCCCCCCCCC [KRN7000, (2S,3S,4R)-1-(α-D-galactopyranosyloxy)-2-hexacosanoylamino-3,4-octadecanediol]
